# Data published in PMC12006171, “Marsupial cathelicidins: characterization, antimicrobial activity and evolution in this unique mammalian lineage” (Frontiers in Immunology, 2025).
# Like-named read-outs stand apart in the source and are kept apart here. Where a SMILES comes first, the peptide text is derived from it.
# Legend:
# [1] = system: Streptococcus pneumoniae ATCC 49619; test: microbe, parasite or virus in culture; assay type: cell-based; details: ATCC 49619; read-out: MIC S. pneumoniae ATCC
# In short: (§1)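 Broth microdilution per CLSI M07-A/M26A; cathelicidin peptides tested at final 64-0.125μg/mL, inoculum 5 x 10^5 CFU/mL, 35°C for 20–24 hours. Bacteria in MHB (±10% lysed horse blood, ±Ca/Mg), yeasts in RPMI-1640 MOPS. MIC = lowest concentration preventing visible growth.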
# [2] = system: Streptococcus agalactiae Clinical isolate - animal; test: microbe, parasite or virus in culture; assay type: cell-based; details: clinical isolate - animal
# In short: as §1
# [3] = system: Streptococcus agalactiae ATCC 12386; test: microbe, parasite or virus in culture; assay type: cell-based; details: ATCC 12386; read-out: MIC S. agalactiae ATCC
# In short: as §1
# S. aureus ATCC 29213 = test: Killing kinetics (time kill assay); assay type: cell-based, Staphylococcus aureus; details: MHB, 35°C, sampled 1-24 hours, n = 2
# Method: The killing kinetics assay was conducted using mid-logarithmic phase cultures of E. coli ATCC 25922 and S. aureus ATCC 29213 in MHB. Cultures were adjusted to a 0.5 McFarland standard, diluted in MHB, and then 100µL was added to each culture tube containing 10mL pre-warmed MHB to give a final inoculum concentration of 5 x 10^5 CFU/mL. A sterility control of 100uL MHB, growth control (no cathelicidin), and vehicle control (DMSO) were also included. Furthermore, 10uL was immediately removed from the growth control tube, diluted 1/1000 in saline and 100µL plated onto MHA in duplicate to confirm inoculum density. To establish colony counts from 0 hours of cathelicidin treatment, 200µL was removed from each culture tube and serially diluted ten-fold in saline from 10^0 to […] in a total volume of 200µL. Then, 10µL of each dilution was spotted onto MHA in duplicate, which were incubated at 35°C for 24 hours.
# All culture tubes were then incubated at 35°C static. At 1, 2, 4, 6, 8, 10, 12, and 24 hours post-cathelicidin treatment, 200µL was removed from each culture tube for dilution and plated on MHA as described above. […] Counts of duplicates were averaged, and the log10 CFU/mL graphed against time. This was used as input for one-way ANOVA (p < 0.05) followed by Dunnett’s post hoc test.
# [4] = system: Staphylococcus aureus ATCC 29213; test: microbe, parasite or virus in culture; assay type: cell-based; details: ATCC 29213
# In short: (§2)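 Broth microdilution per CLSI M07-A/M26A: DMSO-solubilized cathelicidin mature peptides at final 64-0.125μg/mL in Mueller Hinton broth (with or without 10% lysed horse blood, with or without calcium/magnesium), final inoculum 5 x 10^5 CFU/mL, 35°C for 20–24 hours. MIC = lowest concentration preventing visible growth.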
# [5] = system: Pseudomonas aeruginosa ATCC 27853; test: microbe, parasite or virus in culture; assay type: cell-based; details: ATCC 27853; read-out: MIC P. aeruginosa ATCC
# In short: as §2
# [6] = system: Staphylococcus aureus clinical isolate - animal; test: microbe, parasite or virus in culture; assay type: cell-based; details: clinical isolate - animal
# In short: as §2
# [7] = system: Pseudomonas aeruginosa clinical isolate - animal; test: microbe, parasite or virus in culture; assay type: cell-based; details: clinical isolate - animal; read-out: MIC P. aeruginosa
# In short: as §2
# [8] = system: Escherichia coli clinical isolate - animal; test: microbe, parasite or virus in culture; assay type: cell-based; details: clinical isolate - animal
# In short: as §2
# [9] = system: Escherichia coli ATCC 25922; test: microbe, parasite or virus in culture; assay type: cell-based; details: ATCC 25922
# In short: as §2
# [10] = system: Staphylococcus aureus clinical isolate – animal, penicillin-resistant (PRSA); assay type: cell-based; details: clinical isolate – animal, penicillin-resistant (PRSA)
# In short: as §1
# [11] = system: Staphylococcus aureus clinical isolate – animal, methicillin-resistant (MRSA); assay type: cell-based; details: clinical isolate – animal, methicillin-resistant
# In short: as §1
# [12] = system: six bacteria (S. aureus, E. coli, P. aeruginosa; ATCC and clinical isolate); assay type: cell-based; details: broth microdilution screening, phase I or II; Y/N summary over the bacteria tested; synthesized mature peptide
# In short: as §2
# [13] = system: three fungi (Candida krusei, Candida parapsilosis, Candida albicans); test: Antifungal screening, summary over the panel of fungi (broth microdilution); assay type: cell-based; details: broth microdilution screening, phase I; Y/N summary over the fungi tested; synthesized mature peptide
# Method: Antimicrobial testing of 78 cathelicidin MPs was performed in two phases as outlined in Figure 1 . In phase I, 40 peptides (27 extant and 13 ancestral) were selected for testing based on rank (outlined above) and similarity to published marsupial cathelicidins with known antimicrobial activity ([33], [41]–[43]). These peptides were tested against nine bacteria (Staphylococcus aureus ATCC 29213 and clinical isolate, Escherichia coli ATCC 25922 and clinical isolate, Pseudomonas aeruginosa ATCC 27853 and clinical isolate, Streptococcus agalactiae ATCC 12386 and clinical isolate, Streptococcus pneumoniae ATCC 49619) and three fungi (Candida krusei ATCC 6258, Candida parapsilosis ATCC 22019, and Candida albicans clinical isolate). Details regarding these strains are available in Supplementary Table 4 . The antimicrobial activity of cathelicidins was determined as the minimum inhibitory concentration (MIC), which was the lowest concentration of cathelicidin that prevented visible bacterial or fungal growth, relative to the negative control. […] Minimum bactericidal concentration (MBC) and/or minimum fungicidal concentration (MFC) was conducted to determine microbicidal versus static action. Activity against S. aureus ATCC, E. coli ATCC, and Pseudomonas aeruginosa ATCC 27853 was examined in the presence of divalent cations to determine the impact of inhibitors.
# Antimicrobial activity was determined using a broth microdilution susceptibility assay in 96 well polypropylene plates according to Clinical Laboratory Standards Institute guidelines M07-A and M26A as described previously ([33], [42], [43]). The bacterial and fungal isolates from humans and animals used in this study are outlined in Supplementary Table 4 . Only yeasts were included in the panel of fungi as they have been used in the susceptibility testing of eutherian ([3], [81]–[83]) and other marsupial cathelicidins previously ([33], [42], [43]). Cathelicidin mature peptides were solubilized in DMSO and serially diluted in duplicate from 128-0.25μg/mL in a final volume of 100µL. For bacteria, cathelicidins were diluted in Mueller Hinton Broth (MHB) with or without 10% lysed horse blood, and with (MH II B) or without (MHB) calcium and magnesium cations. For fungi, cathelicidins were diluted in Roswell Park Memorial Institute medium (RPMI)-1640 MOPS. Ampicillin or tetracycline were included as a positive control for Gram-positive and -negative bacteria respectively, while amphotericin B was used for fungi. A media-only negative control and growth control (no cathelicidin) were also included on each plate. Bacteria were sub-cultured on Muller Hinton agar (MHA) or sheep blood agar (BA), and fungi on Sabouraud dextrose agar (SAB), 20–24 hours prior to the test. Colonies were suspended in saline, the concentration adjusted to a 0.5 McFarland standard, and then diluted in media to a concentration of 1.0 x 10^6 cells/mL. Then, 100μL was added to each well of the cathelicidin dilution plate, giving a final inoculum density of 5 x 10^5 CFU/mL and cathelicidin concentration of 64-0.125μg/mL. Colony counts were performed on MHA/BA/SAB to confirm inoculum density. All plates were incubated at 35°C for 20–24 hours, depending on the strain.
# Colonies were counted and compared to the colony count of the starting inoculum.
molecule,measurement,setting,value
CC[C@H](C)[C@H](NC(=O)[C@H](CCCCN)NC(=O)[C@H](CC(N)=O)NC(=O)[C@H](CC(C)C)NC(=O)CNC(=O)[C@H](CCC(N)=O)NC(=O)CNC(=O)[C@H](CC(C)C)NC(=O)[C@H](CCCCN)NC(=O)[C@H](CCSC)NC(=O)[C@H](Cc1c[nH]c2ccccc12)NC(=O)CNC(=O)[C@H](CCCCN)NC(=O)[C@H](CCCCN)NC(=O)[C@H](CCC(=O)O)NC(=O)[C@H](Cc1c[nH]cn1)NC(=O)[C@H](CCCNC(=N)N)NC(=O)[C@H](CCCCN)NC(=O)[C@@H](NC(=O)[C@@H](N)CCCCN)[C@@H](C)CC)C(=O)N[C@@H](CC(C)C)C(=O)N[C@@H](CCCCN)C(=O)N[C@@H](Cc1c[nH]cn1)C(=O)N[C@@H](Cc1ccccc1)C(=O)N[C@@H](CC(N)=O)C(=O)N[C@H](C(=O)N[C@@H](CC(=O)O)C(=O)N[C@@H](Cc1ccccc1)C(=O)N[C@@H](CS)C(=O)N[C@@H](CC(C)C)C(=O)N[C@@H](CC(N)=O)C(=O)N[C@@H](CS)C(=O)O)[C@@H](C)CC [LalaCath3] (H-KIKRHEKKGWMKLGQGLNKILKHFNIDFCLNC-OH; N-terminus and C-terminus assumed),MIC,[1],>16.6 µM
same,MBC S. agalactiae,[2],8.3 µM
same,MIC S. agalactiae,[2],8.3 µM
same,MIC,[3],>16.6 µM
same,Number of hours to cause a significant reduction in log CFU/mL of S. aureus ATCC (p < 0.05),S. aureus ATCC 29213; 0.5x MIC,4 hours
same,Number of hours to cause a significant reduction in log CFU/mL of S. aureus ATCC (p < 0.05),S. aureus ATCC 29213; 2x MIC,2 hours
same,Number of hours to cause a significant reduction in log CFU/mL of S. aureus ATCC (p < 0.05),S. aureus ATCC 29213; MIC,4 hours
same,MBC S. aureus ATCC,[4],4.1 µM
same,MIC,[4]; read-out: MIC S. aureus ATCC,2 µM
same,MIC,[4]; read-out: MIC in the presence of cations S. aureus ATCC,2 µM
same,MIC,[5],>16.6 µM
same,MBC S. aureus,[6],4.1 µM
same,MIC,[6]; read-out: MIC S. aureus,2 µM
same,MIC,[6]; read-out: MIC in the presence of cations S. aureus,2 µM
same,MIC,[7],>16.6 µM
same,MBC E. coli,[8],16.6 (16.6)^>16.6 µM
same,MIC E. coli,[8],16.6 (16.6)^>16.6 µM
same,MIC in the presence of cations E. coli,[8],16.6 (16.6)^>16.6 µM
same,MBC E. coli ATCC,[9],8.3 (8.3)^8.3 µM
same,MIC E. coli ATCC,[9],8.3 (8.3)^8.3 µM
same,MIC in the presence of cations E. coli ATCC,[9],8.3 (8.3)^8.3 µM
same,MBC PRSA,[10],2 µM
same,MIC PRSA,[10],1 µM
same,MBC MRSA,[11],4.1 µM
same,MIC MRSA,[11],2 µM
KRGLWESLKRKATKLGDDIRNTLRNFKIKVPVPRQWPIRV [MaruCath4p],Antibacterial (MIC <64ug/mL),[12],Y (Antibacterial (MIC <64ug/mL))
same,Antifungal (MIC <64ug/mL),[13],N (Antifungal (MIC <64ug/mL))
RSKRSSSLEEIDIDSLPPKVKEIYYRGIDDAIGGILRNF [TrvuCath4],Antibacterial (MIC <64ug/mL),[12],N (Antibacterial (MIC <64ug/mL))
same,Antifungal (MIC <64ug/mL),[13],N (Antifungal (MIC <64ug/mL))
